Key:
[1] = tested on: rabbit's brain hemispheres; assay: Amplitude of induced potential in brain hemispheres (acoustic irritation); assay type: in vivo; settings: rabbits
Description: In the third series of experiments the effect of the preparation according to the present invention on the functional brain asymmetry was studied. The experiments were carried out on rabbits with electrodes implanted in the brain. The electrodes under nembutal narcosis (40 mg/kg) were implanted strictly symmetrically into the bearing zone of the temporal cortex of the right and left hemispheres on its lateral surface, whereas the indifferent electrode was secured to the nasal bones of a rabbit's skull. The acoustic irritation was applied through earphones. As the acoustic irritation a sound click caused by a square-shaped pulse from an electronic stimulator with a frequency of 0.1-0.2 Hz was used; the click intensity was adjusted within the range of from 5 to 80 Db. The amplification of the taken-off biopotentials was effected on an electroencephalograph; the induced potentials were obtained by means of an analyzer. 100 experiments on 20 animals were thus conducted; the interval between experiments on one animal was 7 days. The amplitude and form of the induced potential were determined. The asymmetry factor (Kas) was calculated by the formula: [formula] Ar --amplitude of the induced potential of the […] hemisphere, μV;
A1 --amplitude of the induced potential of the left hemisphere.
The test preparations were administered hypodermally in the form of 0.5-1.5% aqueous solutions 20 minutes before the beginning of the measurements.

[2] = tested on: learning ability of mice in a shuttle chamber; assay: Learning ability of mice in a shuttle chamber; assay type: in vivo, mouse
[3] = tested on: learning ability of rats in a shuttle chamber; assay: Active avoidance learning in a shuttle chamber, rats; assay type: in vivo, rat
[4] = mice, hypodermally 1 mg/kg, 1st day
[5] = mice, hypodermally 1 mg/kg, 12 day (retention)
[6] = mice, hypodermally 3 mg/kg, 1st day
[7] = mice, hypodermally 3 mg/kg, 12 day (retention)
[8] = mice, hypodermally 10 mg/kg, 1st day
[9] = mice, hypodermally 10 mg/kg, 12 day (retention)
[10] = mice, per os 0.3 mg/kg, 1st day
[11] = mice, per os 0.3 mg/kg, 12 day (retention)
[12] = mice, per os 1 mg/kg, 12 day (retention)
[13] = mice, per os 3 mg/kg, 12 day (retention)
[14] = rats, hypodermally 1 mg/kg 14 days
[15] = rats, hypodermally 5 mg/kg 14 days
[16] = rats, hypodermally 5 mg/kg after teaching

Cl.Nc1c2c(nc3c1CCC3)CCCC2.O [preparation of the invention, 9-amino-2,3,5,6,7,8-hexahydro-1H-cyclopenta(b)quinoline monohydrate hydrochloride]
amplitude of induced potentials (in words) [1]: increased greater in the left hemisphere
Change of amplitude of induced potential, % of the control, left hemisphere ([1]; hypodermally 5 mg/kg): 270%
Change of amplitude of induced potential, % of the control, right hemisphere ([1]; hypodermally 5 mg/kg): 200%
Mean value of amplitude of induced potential, % ([1]; hypodermally 5 mg/kg): 235%
efficiency versus comparison preparations (in words) ([2]; mice): more efficient than pyracetam, 4-aminopyridine, physostigmine and calcium homopantothenate
retention of the acquired knowledge (in words) ([2]; mice, 1, 3 and 10 mg/kg, after 24 hours): improves retention of the acquired knowledge
learning process (in words) ([2]; mice, 1, 3 and 10 mg/kg, first day of teaching): facilitates the learning process
% of avoidance reactions, group I [2, 4]: 22%
% of avoidance reactions, group II [2, 4]: 40%
% of avoidance reactions, group III [2, 4]: 52%
% of avoidance reactions, group IV [2, 4]: 60%
% of avoidance reactions, group V [2, 4]: 70%
% of avoidance reactions, group VI [2, 4]: 74%
% of avoidance reactions, group I [2, 5]: 70%
% of avoidance reactions, group II [2, 5]: 88%
% of avoidance reactions, group III [2, 5]: 90%
% of avoidance reactions, group IV [2, 5]: 90%
% of avoidance reactions, group V [2, 5]: 91%
% of avoidance reactions, group VI [2, 5]: 90%
% of avoidance reactions, group I [2, 6]: 32%
% of avoidance reactions, group II [2, 6]: 43%
% of avoidance reactions, group III [2, 6]: 50%
% of avoidance reactions, group IV [2, 6]: 61%
% of avoidance reactions, group V [2, 6]: 67%
% of avoidance reactions, group VI [2, 6]: 65%
% of avoidance reactions, group I [2, 7]: 66%
% of avoidance reactions, group II [2, 7]: 90%
% of avoidance reactions, group III [2, 7]: 88%
% of avoidance reactions, group IV [2, 7]: 87%
% of avoidance reactions, group V [2, 7]: 86%
% of avoidance reactions, group VI [2, 7]: 86%
% of avoidance reactions, group I [2, 8]: 28%
% of avoidance reactions, group II [2, 8]: 20%
% of avoidance reactions, group III [2, 8]: 25%
% of avoidance reactions, group IV [2, 8]: 40%
% of avoidance reactions, group V [2, 8]: 44%
% of avoidance reactions, group VI [2, 8]: 46%
% of avoidance reactions, group I [2, 9]: 61%
% of avoidance reactions, group II [2, 9]: 75%
% of avoidance reactions, group III [2, 9]: 78%
% of avoidance reactions, group IV [2, 9]: 77%
% of avoidance reactions, group V [2, 9]: 76%
% of avoidance reactions, group VI [2, 9]: 81%
% of avoidance reactions, group I [2, 10]: 27%
% of avoidance reactions, group II [2, 10]: 38%
% of avoidance reactions, group III [2, 10]: 59%
% of avoidance reactions, group IV [2, 10]: 65%
% of avoidance reactions, group V [2, 10]: 68%
% of avoidance reactions, group VI [2, 10]: 72%
% of avoidance reactions, group I [2, 11]: 79%
% of avoidance reactions, group II [2, 11]: 84%
% of avoidance reactions, group III [2, 11]: 82%
% of avoidance reactions, group IV [2, 11]: 83%
% of avoidance reactions, group V [2, 11]: 80%
% of avoidance reactions, group VI [2, 11]: 82%
% of avoidance reactions, group I ([2]; mice, per os 1 mg/kg, 1st day): 27%
% of avoidance reactions, group II ([2]; mice, per os 1 mg/kg, 1st day): 43%
% of avoidance reactions, group III ([2]; mice, per os 1 mg/kg, 1st day): 70%
% of avoidance reactions, group IV ([2]; mice, per os 1 mg/kg, 1st day): 80%
% of avoidance reactions, group V ([2]; mice, per os 1 mg/kg, 1st day): 80%
% of avoidance reactions, group VI ([2]; mice, per os 1 mg/kg, 1st day): 82%
% of avoidance reactions, group I [2, 12]: 80%
% of avoidance reactions, group II [2, 12]: 90%
% of avoidance reactions, group III [2, 12]: 88%
% of avoidance reactions, group IV [2, 12]: 87%
% of avoidance reactions, group V [2, 12]: 86%
% of avoidance reactions, group VI [2, 12]: 90%
% of avoidance reactions, group I ([2]; mice, per os 3 mg/kg, 1st day): 18%
% of avoidance reactions, group II ([2]; mice, per os 3 mg/kg, 1st day): 27%
% of avoidance reactions, group III ([2]; mice, per os 3 mg/kg, 1st day): 35%
% of avoidance reactions, group IV ([2]; mice, per os 3 mg/kg, 1st day): 44%
% of avoidance reactions, group V ([2]; mice, per os 3 mg/kg, 1st day): 51%
% of avoidance reactions, group VI ([2]; mice, per os 3 mg/kg, 1st day): 50%
% of avoidance reactions, group I [2, 13]: 51%
% of avoidance reactions, group II [2, 13]: 76%
% of avoidance reactions, group III [2, 13]: 75%
% of avoidance reactions, group IV [2, 13]: 77%
% of avoidance reactions, group V [2, 13]: 79%
% of avoidance reactions, group VI [2, 13]: 80%
memory stimulation, per os as compared to subcutaneous administration ([2]; mice, per os vs subcutaneous): the same or even better results of memory stimulation
learning capacity (in words) ([3]; rats, 1, 5 and 10 mg/kg): stimulate the learning capacity of rats
activity on learning versus comparison preparations (in words) ([3]; rats, Tables 1 and 2): substantially more active than 4-aminopyridine, physostigmine, pyracetam and lysyl-vasopressin
Number of combinations to reach the "learning criterion" in II teaching series (after 7 days) ([3]; rats, hypodermally 1 mg/kg): 4.2 + 0.8
Number of combinations to reach the "learning criterion" in the I teaching series ([3]; rats, hypodermally 1 mg/kg): 14.2 + 1.2
Number of non-taught animals in the group ([3]; rats, hypodermally 1 mg/kg): 3/20
Percentage knowledge retention ([3]; rats, hypodermally 1 mg/kg): 70.4%
Number of combinations to reach the "learning criterion" in II teaching series (after 7 days) [3, 14]: 3.9 ± 0.8
Number of combinations to reach the "learning criterion" in the I teaching series [3, 14]: 14.7 ± 1.9
Number of non-taught animals in the group [3, 14]: 2/20
Percentage knowledge retention [3, 14]: 72.7%
Number of combinations to reach the "learning criterion" in II teaching series (after 7 days) ([3]; rats, hypodermally 5 mg/kg): 2.6 + 0.3
Number of combinations to reach the "learning criterion" in the I teaching series ([3]; rats, hypodermally 5 mg/kg): 11.5 + 0.9
Number of non-taught animals in the group ([3]; rats, hypodermally 5 mg/kg): 1/20
Percentage knowledge retention ([3]; rats, hypodermally 5 mg/kg): 77.4%
Number of combinations to reach the "learning criterion" in II teaching series (after 7 days) [3, 15]: 4.4 ± 0.5
Number of combinations to reach the "learning criterion" in the I teaching series [3, 15]: 14.8 ± 2.0
Number of non-taught animals in the group [3, 15]: 2/20
Percentage knowledge retention [3, 15]: 69.3%
Number of combinations to reach the "learning criterion" in II teaching series (after 7 days) [3, 16]: 7.2 ± 0.8
Number of combinations to reach the "learning criterion" in the I teaching series [3, 16]: 19.0 ± 1.2
Number of non-taught animals in the group [3, 16]: 1/20
Percentage knowledge retention [3, 16]: 60%
Number of combinations to reach the "learning criterion" in II teaching series (after 7 days) ([3]; rats, hypodermally 10 mg/kg): 3.0 + 0.5
Number of combinations to reach the "learning criterion" in the I teaching series ([3]; rats, hypodermally 10 mg/kg): 12.9 + 0.8
Number of non-taught animals in the group ([3]; rats, hypodermally 10 mg/kg): 0/15
Percentage knowledge retention ([3]; rats, hypodermally 10 mg/kg): 76.7%
Number of combinations to reach the "learning criterion" in II teaching series (after 7 days) ([3]; rats, per os 5 mg/kg): 6.0 + 0.5
Number of combinations to reach the "learning criterion" in the I teaching series ([3]; rats, per os 5 mg/kg): 12.8 + 1.7
Number of non-taught animals in the group ([3]; rats, per os 5 mg/kg): 2/20
Percentage knowledge retention ([3]; rats, per os 5 mg/kg): 60%
stimulating effect as compared to single-time administration (in words) ([3]; rats, two-weeks of administration): stimulating effect is also enhanced
